Measured values reported in patent US5229364A, “Polypeptides derived from the human immunodeficiency virus endonuclease protein” (priority 1991, dated 1993).

Columns and labels:
[1] = test system: HIV-1 antibody positive sera; assay: Peptide ELISA with HIV-1 antibody positive sera; type: binding, human; conditions: 33 HIV-1 antibody positive sera diluted 1/100; peptide 1 μg/well; absorbance 490 nm; positive = above mean of negative sera plus three S.D.
Method: FIG. 1 illustrates the reactivity of sera from HIV-1 infected and non-infected individuals to selected HIV-1 endonuclease peptides. Thirty-three HIV-1 antibody positive sera (filled symbols) and fourteen control sera (open symbols) were analyzed in ELISA with peptides representing the HIV-1 endonuclease protein (6). Amino acid sequences were derived from the HIV-1 consensus sequence and are shown at the bottom of the picture (abscissa). Uppercase letters indicate consensus amino acids, whereas less conserved amino acids are indicated with lowercase letters. Absorbance values at 490 nm are indicated in the ordinate. Three of the sera belonged to infected individuals classified as CDC 1 (7), thirteen to CDCII, seven to CDC III and ten to CDC IV. Becaused reactivity to other regions than the one represented by End 10 was very low, only results of a selected number of peptides is shown in the figure. FIG. 2 illustrates the reactivity of HIV-1 antobidy positive and control sera to an End 10 set of 18 glycine (G) substitution peptides. Filled symbols show mean optical density for 13 antibody positive sera. The corresponding values for four negative sera are shown by open symbols. Vertical bars represent standard deviation values. The mean reactivity to intact peptide End 10 was chosen to represent 100% of activity and reactivity to the substituted peptides is expressed in relation to this. […]

[2] = test system: sera obtained from HIV-2 infected individuals; assay: Peptide ELISA with sera from HIV-2 infected individuals; type: binding, human; conditions: data not shown
Method: The peptide ELISA was performed as follows. Microtiter plate wells (Linbro, Flow, Scotland) were coated with peptide (1 μg/well) resuspended in 0.01 M carbonate buffer at room temperature overnight. Thereafter, the plates wells were blocked with 5% bovine serum albumin. 100 μl of reagents were used per well. Five washings (0.9% NaCl and 0.005% Tween 20 in distilled water) were performed between the different steps of the ELISA procedure. Positive sera and controls were diluted 1/100 and incubated in the plates for one hour at 37° C. Peroxidase conjugated immunoglobulins to human IgG y-chains (Dakopatts; Denmark) diluted 1/2000 were added (1 hour, 37° C.). 1,2 phenylene diaminedihydrochloride was used as substrate. The reaction was allowed to continue for ten minutes and then stopped with 3 M H2 SO4. […] The mean optic density plus three times S.D. for peptide End 10 was 0.8.
The corresponding region in the genome of HIV-2 (Table 1) and simian immunodeficiency virus (SIV) is also very conserved. […] Some amino-acid stretches are, however, completely conserved among the different serotypes. Because of this observation, the HIV-1 peptide End 10 was also tested with 30 sera obtained from HIV-2 infected individuals.

## ETGQETAYFLLKLAGRWPVK [End 10, 20-residue peptide of HIV-1 endonuclease, starting at position 655 of the pol consensus]
[1]
  reactivity in ELISA with HIV-1 antibody positive sera: reacted strongly
[2]; 30 HIV-2 sera
  intensity of the reactions with HIV-2 sera relative to HIV-1 sera: comparable
[2]; 30 sera from HIV-2 infected individuals
  reactivity in ELISA with HIV-2 sera: reacted strongly
